From paper PMC12649408 (Antibiotics, 2025)
Like-named read-outs stand apart in the source and are kept apart here. Bridge positions count the residues as written; N and C are the ends. Ends that are not written are not given here.

Assays:
[1] = target: T1, trypsin (Bos taurus, UniProt P00760); conditions: 24 h, 37 °C, 50 mM ammonium bicarbonate buffer pH 8.0, 2.5 ng trypsin per 1 μg peptide, SDS-PAGE
T1 construct: gene PRSS1
Protocol: (§5) For that purpose, peptides were incubated for 24 h at 50 mM ammonium bicarbonate buffer, pH 8.0, with or without protease.
(§6) The results of proteolysis were monitored by SDS-PAGE (17% T, 3%C). α-Casein, known for its susceptibility to proteolytic digestion, was used in these experiments for comparison.

[2] = tested on: human red blood cells (hRBCs); conditions: 100 µM
Protocol: All procedures were approved by the Ethics Committee of the Institute of Experimental Medicine (protocol 1/20 of 2/27/2020) and comply with the ethical principles of the Declaration of Helsinki. […] Samples were centrifuged to sediment intact red blood cells. Supernatants containing released hemoglobin were transferred to 96-well microplates, and absorbance was measured at 405 nm. Untreated hRBCs in PBS (A0) and hRBC treated with 0.1% Triton X-100 (Sigma-Aldrich) (Acontrol) were used as negative and positive controls, respectively. The percentage of hemolysis was calculated as [(Asample − A0)/(Acontrol − A0)] × 100%. The experiment was carried out twice in duplicate.

[3] = not given; remark: listed apart in the source
[4] = not given; remark: listed apart in the source
[5] = tested on: Caco-2 cell monolayer; assay: Cytotoxicity assay, resazurin method; assay type: cell-based, human
Protocol: (§1) Cytotoxic activity of the peptides was investigated against human peripheral blood mononuclear cells (PBMCs) and the Caco-2 epithelial monolayer as an in vitro model of the intestinal barrier using a RPMI-1640 medium and resazurin-test.
(§2) In brief, Caco-2 cells in a monolayer or 2 × 10^6 PBMCs per well were incubated with serial dilutions of the peptides for 24 h in RPMI-1640. Resazurin (Sigma, St. Louis, MO, USA) was then added at a final concentration of 70 µM and the plates were incubated for 20 h. Untreated cells (F0) and cells treated by 0.1% Triton X-100 (Sigma-Aldrich) (Fcontrol) were used as negative and positive controls, respectively. Cell viability was assessed by resorufin fluorescence using a 535/595 nm filter and a PlateReader AF2200 as ((Fsample − F0)/(Fcontrol − F0)) × 100%. […] The experiment was carried out twice in duplicate.

[6] = tested on: PBMCs; assay: Cytotoxicity assay, resazurin method; assay type: cell-based, human
Protocol: as §1, §2

[7] = not given; remark: listed apart in the source
[8] = tested on: α-chymotrypsin; conditions: 24 h, 37 °C, 50 mM ammonium bicarbonate buffer pH 8.0, 10 ng α-chymotrypsin per 1 μg peptide, SDS-PAGE
Protocol: as §5, §6

[9] = not given; remark: listed apart in the source
[10] = not given; remark: listed apart in the source
[11] = not given; remark: listed apart in the source
[12] = not given; remark: listed apart in the source
[13] = not given; remark: listed apart in the source
[14] = not given; remark: listed apart in the source
[15] = tested on: C. albicans ATCC 18804; assay: Checkerboard antifungal assay; assay type: cell-based; conditions: Sabouraud broth, 24 h, 30 °C, synergism at FICI ≤ 0.5, additive action at 0.5 < FIC ≤ 1
Protocol: All three selected analogues acted synergistically with caspofungin, and the FICI value for NaD1-2 was lower than that of the tobacco defensin.
Two-fold serial dilutions of each test agent were prepared in 96-well microplates in water or 1% DMSO in the case of caspofungin and mixed with equal volumes of suspensions of C. albicans cells (4 × 10^4 cells/mL) in Sabouraud broth, followed by 24 h incubation at 30 °C. Controls containing DMSO at a final concentration of 0.5% (cells only and single agent dilutions) were included in all caspofungin combination assays. […] To assess the combined effect of antifungal substances, the fractional inhibitory concentration index (FICI) was calculated as FICI = ([A])/([MICA]) + ([B])/([MICB]), where [MICA] and [MICB] are the MICs of the substances A and B, respectively, and [A] and [B] are the concentrations of the substances A and B in iso-effective combinations, respectively.

[16] = tested on: C. albicans ATCC 18804; conditions: Sabouraud broth
Protocol: (§3) Using the two-fold serial dilution method, antifungal activities of the obtained analogues were tested against different C. albicans strains: susceptible collection strain ATCC 18804; resistant to azoles and anidulafungin collection strain ATCC 10231 and clinical isolates 9.1 and 8.2 [7].
(§4) The antifungal assay was performed by the microdilution method using 96-well microplates and Sabouraud broth as described earlier. […] After that, the plates were incubated at 30 °C for 24 h. A control without antifungals was also tested. Fungal growth was evaluated by measuring absorbance at 630 nm. […] All the experiments were performed twice in triplicate. Microscopic analysis of fungal growth was performed using inverted microscopy (Olympus, Tokyo, Japan). A 0.1% BSA solution was used for the blocking of each microplates well to prevent the adsorption of antifungal agents.

[17] = tested on: C. albicans clinical isolate 8.2; conditions: Table 2; resistant clinical isolate 8.2; Sabouraud broth, 30 °C, 24 h, 100% inhibition
Protocol: as §3, §4

[18] = tested on: C. albicans clinical isolate 9.1; conditions: Table 2; resistant clinical isolate 9.1; Sabouraud broth, 30 °C, 24 h, 100% inhibition
Protocol: as §3, §4

[19] = tested on: C. albicans ATCC 10231; conditions: Table 2; strain resistant to azoles and anidulafungin; Sabouraud broth, 30 °C, 24 h, 100% inhibition
Protocol: as §3, §4

[20] = not given; remark: listed apart in the source
[21] = not given; remark: listed apart in the source
[22] = Caco-2 monolayer, RPMI-1640, resazurin-test

T1 sequence (P00760 24-246): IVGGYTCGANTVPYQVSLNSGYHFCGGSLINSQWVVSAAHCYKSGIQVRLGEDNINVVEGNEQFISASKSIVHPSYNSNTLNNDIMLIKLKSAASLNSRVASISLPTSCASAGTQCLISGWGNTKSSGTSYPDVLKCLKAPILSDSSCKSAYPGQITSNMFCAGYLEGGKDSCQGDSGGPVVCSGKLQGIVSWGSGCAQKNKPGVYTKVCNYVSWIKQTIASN

In the case of “RECKTESNTFPGICITKPPCRKACISEKFTDGHCSKILRRCLCTKPC (disulfide 3-47, 14-34, 20-41, 24-43) [NaD1]”, the “stability to trypsin digestion” value [1] is reported as “high stability”, the Random, SDS micelles is reported as 31% and the “Hemolysis at 100 µM” value [2] is reported as 14%. For the same sequence, the β-Turn, DPC micelles [3] was 21.1%, the Random, aqueous solution [4] was 35.8% and the “concentration at which cell viability was 0% (100% cell death)” value [5, 22] was 37.5 µM. For the same sequence, the “concentration at which cell viability was 50%” value [5, 22] was 10.5 µM, the “СС50 Caco-2” value ([5]; Table S2, monolayer, 24 h in RPMI-1640, resazurin, twice in duplicate) was 10.5 µM and the cell viability ([6]; PBMCs, peptide 100 μM, RPMI-1640, resazurin-test) was “approximately 72%”. For the same sequence, the “СС50 PBMCs” value ([6]; Table S2, 24 h in RPMI-1640, resazurin, twice in duplicate) was over 100 µM, the β-Sheet, SDS micelles [7] was 31% and the “stability to chymotrypsin digestion” value [8] was “high stability”. It also gave a α-Helix, aqueous solution [9] of 7.5%, a β-Sheet, DPC micelles [10] of 35.4% and a β-Sheet, aqueous solution [11] of 35.4%. For the same sequence, the β-Turn, SDS micelles [12] was 22.2%, the α-Helix, SDS micelles [13] was 15.8% and the β-Turn, aqueous solution [14] was 21.3%. For the same sequence, the “FICI LL-37” value ([15]; combination of the peptide with LL-37) was 0.38, the “FICI Casp” value ([15]; combination of the peptide with caspofungin) was 0.31 and the IC50 ([16]; 50 mM NaCl, 50% inhibition) was 12.5 to 25 µM. The MIC ([16]; 50 mM NaCl, 100% inhibition) was 50 µM, the IC50 ([16]; 150 mM NaCl, 50% inhibition) was over 50 µM and the MIC ([16]; Table 2, 30 °C, 24 h, 100% inhibition of fungal growth, absorbance 630 nm, two-fold dilutions, twice in triplicate) was 6.25 µM. For the same sequence, the IC50 ([16]; Table 3, No Salts, 50% inhibition of fungal growth) was 1.56 to 3.13 µM, the MIC ([16]; Table 3, No Salts, 100% inhibition of fungal growth) was 6.25 µM and the IC50 ([16]; […] CaCl2, 50% inhibition) was over 50 µM. For the same sequence, the MIC ([16]; […] CaCl2, 100% inhibition) was over 50 µM, the IC50 ([16]; […] MgCl2, 50% inhibition) was 3.13 to 6.25 µM and the MIC ([16]; […] MgCl2, 100% inhibition) was 12.5 µM. The MIC [17] was 6.25 µM, the MIC [18] was 6.25 µM and the MIC [19] was 6.25 µM. For the same sequence, the α-Helix, DPC micelles [20] was 9.3% and the Random, DPC micelles [21] was 34.2%.
